Here are results for one substance from patent US4473544A, “Radio-iodine-labelled omega phenyl fatty acids” (priority 1979, dated 1984).

Data set [1] can be described thus: Renal excretion and extracellular distribution of beta-oxidation degradation products. Format: in vivo. To be noted: products of beta-oxidation of radio-iodine-labelled phenyl fatty acids. From the text:
We have now discovered radio-iodine-labelled omega-phenyl fatty acids, particularly p-I123 -omega-phenyl pentadecanoic acid and its use, to image body organs such as the heart and liver. Through the use of these novel agents, the disadvantages associated with the use of omega-iodine fatty acids, e.g., injecting radioactive iodide as an internal standard and making the necessary corrections, can be completely avoided.
On degradation via beta-oxidation of the iodinated phenyl fatty acid of the invention, the radioactive residue produced is not iodide, but rather iodinated benzoic or iodinated phenylacetic acid. […] Tests in mice have proven that the residual activity in the blood is 2% of the injected dose per gram of blood.

For data set [2] the following is noted: stated as known; cited from earlier work.

As for iodophenylacetic acid, in data set [1], the “distribution throughout the extracellular fluid” value is “does not occur”; the “excretion by the kidneys” value was “rapidly and quantitatively excreted by the kidneys”. For the same substance, the “excretion from the body via the kidneys” value in data set [2] was “rapidly excreted from the body via the kidneys”.
